Source: US10392348B2, “2-oxo-3,4-dihydroquinoline compounds as plant growth regulators” (Syngenta Participations AG, priority 2015, dated 2019)
Like-named read-outs stand apart in the source and are kept apart here.

Tests used:
[1] = tested on: corn plants (variety NK OCTET); experiment: Reduced plant water use in corn (foliar spray, repeated weighing of pots); type: in vivo; settings: Zea mays, corn plants sprayed at 500 μM, average of 6 pots
Procedure: Compounds were tested for their effect on reducing plant water use as follows. The compounds were applied by foliar spray to 12 day old corn plants (variety NK OCTET) grown in controlled environment plant growth chambers. All compounds were applied using an emulsifiable concentrate (EC) formulation that was diluted to the desired concentrations with water containing 0.4% of the adjuvant rape seed methyl ester. Plant water use during the day was assessed by repeated weighing of the pots in which the plants were grown before and after application of the compounds at the indicated times (expressed in days after application (DAA)). The water use data before application was used to correct any differences in water use arising due to non-treatment effects (e.g. due to differences in plant size). The untransformed water use values were subjected to an analysis of covariance, fitting the effect of treatment and using the baseline water use 1 day before application as a covariate. Application of the chemicals (0 DAA) takes place approximately between 08:00 and 09:30 a.m. WU is measured within day time (chamber light is on 06:00 to 20:00) at these timepoints: 0 DAA a.m. (10:30-12:50), 0 DAA p.m. (14:00-19:50), 1 DAA a.m. (07:30-12:50), 1 DAA p.m. (14:00-19:50), 2 DAA a.m. (07:30-12:50) and 2 DAA p.m. (14:00-19:50). The cumulative total WU (0-2.5 DAA) is calculated by summing the WU data mentioned above.

[2] = 0 h, water use during day time vs negative control, 0 DAA a.m. (10:30-12:50), read-out: % WU 0 DAA AM
[3] = 0 h, water use during day time vs negative control, 0 DAA p.m. (14:00-19:50), read-out: % WU 0DAA PM
[4] = 24 h, water use during day time vs negative control, 1 DAA a.m. (07:30-12:50), read-out: % WU 1DAA AM
[5] = 24 h, water use during day time vs negative control, 1 DAA p.m. (14:00-19:50), read-out: % WU 1DAA PM
[6] = 48 h, water use during day time vs negative control, 2 DAA a.m. (07:30-12:50), read-out: % WU 2 DAA AM
[7] = 48 h, water use during day time vs negative control, 2 DAA p.m. (14:00-19:50), read-out: % WU 2 DAA PM
[8] = 60 h, cumulative total water use 0-2.5 DAA (sum of the time points) vs negative control, read-out: % WU Total 0 to 2.5 DAA

CCN1C(=O)CCc2cc(CNS(=O)(=O)c3ccc(C(F)(F)F)cc3)ccc21 [Compound 2.015, N-[(1-ethyl-2-oxo-3,4-dihydroquinolin-6-yl)methyl]-4-(trifluoromethyl)benzenesulfonamide]
change in vivo at 500 µM [1, 2]: -8.9%
change in vivo at 500 µM [1, 3]: -3.4%
change in vivo at 500 µM [1, 4]: -4%
change in vivo at 500 µM [1, 5]: -2.6%
change in vivo at 500 µM [1, 6]: -1.9%
change in vivo at 500 µM [1, 7]: -1%
change in vivo at 500 µM [1, 8]: -2.9%
melting point: 180 to 181 °C

CCN1C(=O)CCc2cc(CNS(=O)(=O)/C=C/c3ccccc3)ccc21 [Compound 2.051, (E)-N-[(1-ethyl-2-oxo-3,4-dihydroquinolin-6-yl)methyl]-2-phenyl-ethenesulfonamide]
change in vivo at 500 µM [1, 2]: -13.2%
change in vivo at 500 µM [1, 3]: -8.5%
change in vivo at 500 µM [1, 4]: -10.7%
change in vivo at 500 µM [1, 5]: -8.6%
change in vivo at 500 µM [1, 6]: -8.7%
change in vivo at 500 µM [1, 7]: -6.5%
change in vivo at 500 µM [1, 8]: -9.1%
melting point: 134 to 137 °C

CCN1C(=O)CCc2cc(CNS(=O)(=O)/C=C/c3cccc(Cl)c3)ccc21 [Compound 2.069, (E)-2-(3-chlorophenyl)-N-[(1-ethyl-2-oxo-3,4-dihydroquinolin-6-yl)methyl]ethenesulfonamide]
change in vivo at 500 µM [1, 2]: -6.5%
change in vivo at 500 µM [1, 3]: -3.5%
change in vivo at 500 µM [1, 4]: -3.3%
change in vivo at 500 µM [1, 5]: -3.7%
change in vivo at 500 µM [1, 6]: -2.1%
change in vivo at 500 µM [1, 7]: -1.9%
change in vivo at 500 µM [1, 8]: -3.2%
melting point: 149 to 151 °C

CCN1C(=O)CCc2cc(CNS(=O)(=O)/C=C/c3cccc(Br)c3)ccc21 [Compound 2.070, (E)-2-(3-bromophenyl)-N-[(1-ethyl-2-oxo-3,4-dihydroquinolin-6-yl)methyl]ethenesulfonamide]
change in vivo at 500 µM [1, 2]: -8.1%
change in vivo at 500 µM [1, 3]: -4.1%
change in vivo at 500 µM [1, 4]: -6.1%
change in vivo at 500 µM [1, 5]: -5.5%
change in vivo at 500 µM [1, 6]: -4.8%
change in vivo at 500 µM [1, 7]: -3.8%
change in vivo at 500 µM [1, 8]: -5%
melting point: 144 to 147 °C

CCCN1C(=O)CCc2cc(CNS(=O)(=O)c3ccc(Cl)cc3)ccc21 [Compound 3.004, 4-chloro-N-[(2-oxo-1-propyl-3,4-dihydroquinolin-6-yl)methyl]benzenesulfonamide]
change in vivo at 500 µM [1, 2]: -17.3%
change in vivo at 500 µM [1, 3]: -12.5%
change in vivo at 500 µM [1, 4]: -14.1%
change in vivo at 500 µM [1, 5]: -12.9%
change in vivo at 500 µM [1, 6]: -11.8%
change in vivo at 500 µM [1, 7]: -10.7%
change in vivo at 500 µM [1, 8]: -12.8%
melting point: 138 to 139 °C

CCCN1C(=O)CCc2cc(CNS(=O)(=O)c3ccccc3Br)ccc21 [Compound 3.017, 2-bromo-N-[(2-oxo-1-propyl-3,4-dihydroquinolin-6-yl)methyl]benzenesulfonamide]
change in vivo at 500 µM [1, 2]: -5.8%
change in vivo at 500 µM [1, 3]: -3.1%
change in vivo at 500 µM [1, 4]: -3.1%
change in vivo at 500 µM [1, 5]: -2.5%
change in vivo at 500 µM [1, 6]: -1.8%
change in vivo at 500 µM [1, 7]: -2.1%
change in vivo at 500 µM [1, 8]: -2.7%
melting point: 157 to 159 °C

CCCN1C(=O)CCc2cc(CNS(=O)(=O)/C=C/c3ccccc3)ccc21 [Compound 3.051, (E)-N-[(2-oxo-1-propyl-3,4-dihydroquinolin-6-yl)methyl]-2-phenyl-ethenesulfonamide]
change in vivo at 500 µM [1, 2]: -11.2%
change in vivo at 500 µM [1, 3]: -6.4%
change in vivo at 500 µM [1, 4]: -8.1%
change in vivo at 500 µM [1, 5]: -5.5%
change in vivo at 500 µM [1, 6]: -5.4%
change in vivo at 500 µM [1, 7]: -4.3%
change in vivo at 500 µM [1, 8]: -6.2%
melting point: 165 to 168 °C

CCCN1C(=O)CCc2cc(CNS(=O)(=O)/C=C/c3ccc(Br)cc3)ccc21 [Compound 3.052, (E)-2-(4-bromophenyl)-N-[(2-oxo-1-propyl-3,4-dihydroquinolin-6-yl)methyl]ethenesulfonamide]
change in vivo at 500 µM [1, 2]: -9.6%
change in vivo at 500 µM [1, 3]: -4.6%
change in vivo at 500 µM [1, 4]: -4.5%
change in vivo at 500 µM [1, 5]: -4.5%
change in vivo at 500 µM [1, 6]: -2.2%
change in vivo at 500 µM [1, 7]: -2.5%
change in vivo at 500 µM [1, 8]: -4.1%
melting point: 150 to 152 °C
